Key:
[1] = test system: A549 (lung adenocarcinoma); test: MTT antiproliferative assay in A549 cells; type: cell-based, human; conditions: Homo sapiens, 72 hrs treatment, MTT
Procedure: (§1) Cell culture. A549 and IMR-90 cells were purchased from the American Type Culture Collection (ATCC), while HOP-62 and HOP-92 were obtained from the cell line repository at the National Cancer Institute. Cells were grown in the appropriate medium supplemented with 10% fetal bovine serum (FBS, Life Technologies, Grand Island, N.Y.), 62.5 μg/mL penicillin and 100 μg/mL streptomycin (Life Technologies) in a humidified incubator at 37° C. with 5% CO2. The media were as follows: Dulbecco's modified Eagle's medium (DMEM, Life Technologies) for A549 cells; RPMI 1640 (Life Technologies) for HOP-62 and HOP-92 cells; Eagle's minimal essential medium (EMEM) with Eagle's balanced salt solution (EBSS), 2 mM L-glutamine, 1500 mg/L sodium bicarbonate (Lonza, Walkersville, Md.), supplemented with 1 mM sodium pyruvate (Life Technologies) and non-essential amino acids (Life Technologies) for IMR-90 cells. Cell lines were verified with a 9-marker short tandem repeat profile and inter-species contamination test (Idexx BioResearch), although A549 cells utilized in proliferation assays were missing the Y allele at the amelogenin marker.
(§2) Cell proliferation & viability assays. Anti-proliferative activity of XB05 and other compounds was evaluated using a previously published 3-(4,5-dimethylthiazol-2-yl)-2,5-diphenyltetrazolium bromide (MTT) assay protocol (MORGAN “Tetrazolium (MTT) assay for cellular viability and activity” Methods Mol Biol. (1998) Vol. 79, pp. 179-83, which is herein incorporated by reference in its entirety, BATES et al. “Antiproliferative activity of G-rich oligonucleotides correlates with protein binding” J Biol Chem. (1999) Vol. 274, No. 37, pp. 26369-26377, which is herein incorporated by reference in its entirety, SALIPUR et al. “A novel small molecule that induces oxidative stress and selectively kills malignant cells” Free Radic Biol Med. (2014) Vol. 68, pp. 110-121, which is herein incorporated by reference in its entirety). Cells were seeded in quadruplicate wells in 96-well plates and allowed to adhere overnight. […] After 72 hrs of treatment with XB05 or other compounds, MTT (Sigma, St. Louis, Mo.) was added for 4 hrs prior to cell lysis. Each assay was performed in at least triplicate.
(§3) XB05 and related compounds were assessed for anti-proliferative activity in malignant (A549) and non-malignant (IMR-90) cells (Table A2).

[2] = test system: IMR-90 (non-malignant lung fibroblasts); test: MTT antiproliferative assay in IMR-90 cells; type: cell-based; conditions: Homo sapiens, 72 hrs treatment, read-out: MTT Antiproliferative Activity - IC50 (μM) IMR0 (non-malignant lung fibroblasts)
Procedure: as §1, §2, §3

[3] = DTNB assay for reactivity with free thiols, reduced glutathione; type: physicochemical; conditions: 0.25 mM reduced glutathione, 30 min at 37° C., pH 8.0
Procedure: (§4) Dithiobis-2-nitrobenzioc acid (DTNB) assay for free sulfhydryls. Similar to previously described in SALIPUR et al. “A novel small molecule that induces oxidative stress and selectively kills malignant cells” Free Radic Biol Med. (2014) Vol. 68, pp. 110-121, which is herein incorporated by reference in its entirety, reactivity with free sulfhydryls was evaluated using DTNB (Sigma). Briefly, a 4× solution of DTNB (6 mM DTNB, 50 mM sodium acetate in 100 mM Tris-HCl, pH 8.0) and solutions of 0.5 mM cysteine (Sigma) and reduced glutathione (GSH, Sigma) in 100 mM Tris-HCl, pH 8.0 were freshly prepared. The 200 mM stock solutions of XB05, other compounds, diethylmaleate (Sigma), and maleimide (Sigma) were prepared in 100% DMSO, and subsequently diluted to 2× working solutions in 100 mM Tris-HCl, pH 8.0. Thiol compounds (final concentration 0.25 mM) and thiol-reactive compounds (final concentrations 0.04-5 mM) or vehicle were added in duplicate to a 96-well plate and incubated for 30 min at 37° C. DTNB solution was then added to each well (final concentration 400 μM), and incubated at room temperature for an additional 5 min. Absorbance at 412 nm was determined by a Biotek HT Synergy plate reader (Winooski, Vt.).

[4] = DTNB assay for reactivity with free thiols, cysteine; type: physicochemical; conditions: 0.25 mM cysteine, 30 min at 37° C., pH 8.0
Procedure: as §4

Row | IC50 [1] [µM] | SMILES | IC50 [2] [µM] | DTNB Reactivity with Thiols - DTNB assay with Glutathione [3] | DTNB Reactivity with Thiols - DTNB assay with Cysteine [4]
1 | 1.1 | CCC#CCCCCCCCC(O)C#CC(F)(F)Br (stereo not shown) [MNR-1-147] | 4 | – | –
2 | > 10 | CCCCCC(=O)/C=C(\NCCC)C(F)(F)Br [JAB-4-165] | > 10 | ND (DTNB ND - not detected at concentrations up to 2.5 mM) | ND (DTNB ND - not detected at concentrations up to 2.5 mM)
3 | > 10 | CCCCCC(Cl)C#CC(F)(F)Br (stereo not shown) [MNR-1-102] | > 10 | Reactive | ND (DTNB ND - not detected at concentrations up to 2.5 mM)
4 | 1 | CCCCCCCCCC(O)C#CC(F)(F)Br (stereo not shown) [MNR-3-69] | 2.8 | – | –
5 | > 10 | OC(C#CC(F)(F)Br)c1ccccc1 (stereo not shown) [MNR-3-93] | > 10 | – | –
6 | 1.9 | CCCCCC(C#CC(F)(F)Br)OC1CCCCO1 (stereo not shown) [MNR-3-27] | 3.7 | – | –
7 | 0.9 | CCCCCC(C#CC(F)(F)Br)OC(C)=O (stereo not shown) [MNR-3-43] | 5.4 | ND (DTNB ND - not detected at concentrations up to 2.5 mM) | ND (DTNB ND - not detected at concentrations up to 2.5 mM)
8 | 1.1 | CCCCCCCCCCCC(O)C#CC(F)(F)Br (stereo not shown) [MNR-3-89] | 2.7 | – | –
9 | > 10 | O=C(CCCCC1SCC2NC(=O)NC21)NCCOCCOCCOCCOCCC(=O)NCCCCCCCCCC(O)C#CC(F)(F)Br (stereo not shown) [MNR-2-6] | > 10 | – | –
10 | 1.9 | CCCC(C)C(O)C#CC(F)(F)Br (stereo not shown) [MNR-1-117] | 7.9 | ND (DTNB ND - not detected at concentrations up to 2.5 mM) | ND (DTNB ND - not detected at concentrations up to 2.5 mM)
11 | 2.1 | CCCCCCC#CC(F)(F)Br [JAB-4-158] | > 10 | ND (DTNB ND - not detected at concentrations up to 2.5 mM) | ND (DTNB ND - not detected at concentrations up to 2.5 mM)
12 | 7.1 | CCCCCC(O)C#CCBr (stereo not shown) [MNR-3-92] | 8.7 | Reactive | Reactive
13 | > 10 | C#CC(O)CCCCC (stereo not shown) [Compound 1-Octyn-3-ol, 1-Octyn-3-ol] | > 10 | ND (DTNB ND - not detected at concentrations up to 2.5 mM) | Reactive
14 | 0.8 | CCCC(O)C#CC(F)(F)Br (stereo not shown) [MNR-1-122] | 1.1 | ND (DTNB ND - not detected at concentrations up to 2.5 mM) | ND (DTNB ND - not detected at concentrations up to 2.5 mM)
15 | 1.2 | OC(C#CC(F)(F)Br)CCc1ccccc1 (stereo not shown) [MNR-3-82] | 2.8 | – | –
16 | 0.4 | CC/C=C\CCC(O)C#CC(F)(F)Br (stereo not shown) [JAB-4-169] | 3.8 | ND (DTNB ND - not detected at concentrations up to 2.5 mM) | ND (DTNB ND - not detected at concentrations up to 2.5 mM)

Row | IC50 [1] [µM] | SMILES | IC50 [2] [µM] | DTNB Reactivity with Thiols - DTNB assay with Glutathione [3] | DTNB Reactivity with Thiols - DTNB assay with Cysteine [4]
17 | 0.4 | CCCCC[C@@H](O)C#CC(F)(F)Br [MNR-3-38] | 1.5 | ND (DTNB ND - not detected at concentrations up to 2.5 mM) | ND (DTNB ND - not detected at concentrations up to 2.5 mM)
18 | > 10 | CCCCCC(O)C#CC(F)(F)Oc1ccc(F)cc1 (stereo not shown) [MNR-1-110] | > 10 | ND (DTNB ND - not detected at concentrations up to 2.5 mM) | ND (DTNB ND - not detected at concentrations up to 2.5 mM)
19 | 0.9 | OC(C#CC(F)(F)Br)C1CCCCC1 (stereo not shown) [MNR-3-90] | 3.1 | – | –
20 | > 10 | CCCCCC(O)C#CC(F)(F)F (stereo not shown) [JAB-4-156] | > 10 | ND (DTNB ND - not detected at concentrations up to 2.5 mM) | ND (DTNB ND - not detected at concentrations up to 2.5 mM)
21 | > 10 | CCCCCC(O)C#CC(F)F (stereo not shown) [MNR-3-91] | > 10 | – | –
22 | > 10 | CCCCCC(=O)C#CC(F)(F)Br [JAB-4-163] | > 10 | ND (DTNB ND - not detected at concentrations up to 2.5 mM) | ND (DTNB ND - not detected at concentrations up to 2.5 mM)
23 | > 10 | OC(C#CC(F)(F)Br)CCCCc1ccccc1 (stereo not shown) [MNR-1-129] | > 10 | – | –
24 | > 10 | CCCCCC(O)C#CC(F)(F)SCc1ccccc1 (stereo not shown) [MNR-1-111] | > 10 | ND (DTNB ND - not detected at concentrations up to 2.5 mM) | ND (DTNB ND - not detected at concentrations up to 2.5 mM)
25 | 0.9 | CCCCCCCC(O)C#CC(F)(F)Br (stereo not shown) [MNR-3-94] | 2.7 | – | –
26 | 3.5 | CCCCCC(C#CC(F)(F)Br)OC (stereo not shown) [JAB-4-155] | > 10 | ND (DTNB ND - not detected at concentrations up to 2.5 mM) | ND (DTNB ND - not detected at concentrations up to 2.5 mM)
27 | > 10 | CC(C)(C)OC(=O)NCCCCCCCCCC(O)C#CC(F)(F)Br (stereo not shown) [MNR-1-186] | > 10 | – | –
28 | 4.8 | CCCCC[C@H](O)C#CC(F)(F)Br [MNR-3-41] | > 10 | – | –
29 | 8.2 | CCCCCC(C)(O)C#CC(F)(F)Br (stereo not shown) [MNR-1-118] | > 10 | ND (DTNB ND - not detected at concentrations up to 2.5 mM) | ND (DTNB ND - not detected at concentrations up to 2.5 mM)
30 | > 10 | CC(C)(C)C(O)C#CC(F)(F)Br (stereo not shown) [MNR-3-85] | > 10 | – | –
31 | > 10 | CC(C)C(O)C#CC(F)(F)Br (stereo not shown) [MNR-3-86] | > 10 | – | –

From US11679098B2, “Methods for treating diseases” (UNIVERSITY OF LOUISVILLE RESEARCH FOUNDATION, INC., priority 2018, dated 2023)
